From patent US4252788A, “Dental composition for preventing and inhibiting dental caries” (Toyo Seiyaku Kasei Co., Ltd., priority 1979, dated 1981)

Experiments:
[1] = Ability to inhibit decalcification of the hard tissue (dissolved calcium from human dentin powder in acid solution)
Description: The ability to inhibit decalcification of the hard tissue was estimated according to the method described in Nishino. Osaka University Shigaku Zasshi, Vol. 14, page 1 (1969). That is, firstly, a certain amount of human dentin powder was treated with a composition (aqueous solution of a molybdate compound) to be tested for certain minutes and then unbonded excess components were removed by washing with water to obtain a sample powder. Then, the sample powder was treated with an acid solution (decalcification) and the amount of calcium in the solution, which was dissolved in the solution by action of the acid, was determined (sample calcium content). Similarly, untreated dentin powder was added to an acid solution and the amount of calcium in the acid solution was determined (control calcium content). From these values, a inhibition rate of decalcification was calculated as follows: [formula]

[2] = In vivo inhibition of dental caries in rats on cariogenic diet inoculated with Streptococcus mutans; design: species or system Male Sprague-Dawley rats; details: for Average caries score (± S.E.), Dm (moderate dental caries) / Average caries score (± S.E.), Ds (slight dental caries) / Average caries score (± S.E.), Dx (extensive dental caries) / Inhibition rate of dental caries, Dm (moderate dental caries) / Inhibition rate of dental caries, Ds (slight dental caries) / Inhibition rate of dental caries, Dx (extensive dental caries): 8 weeks
Description: Further, the ability of the composition of the present invention to inhibit dental caries was tested in vivo as follows:
45 Male Sprague-Dawley rats (18 days old) were divided into three groups (15 rats/group). These rats were kept with the following cariogenic diet and deionized water during the test period (8 weeks).
0.2 ml of a culture broth, which was prepared by anaerobic cultivation of Streptococcus mutans in brain-heart-infusion broth at 37° C. for 24 hours, was orally administered to each rat once a day for 5 days. On the first, 7th, 14th, 21st, 28th and 35th days of the test period, 10% solution of (NH4)2 MoO2 F4 in deionized water (pH 7.5) was applied twice to mandibular molar of each rat of the first group with a cotton applicator and dried for 5 minutes. Likewise, 2% solution of NaF in deionized water (pH 3.6) was applied to each rat of the second group. As a control, mere deionized water was also applied to each rat of the third group. After 8 weeks, rats were sacrificed and mandibula of each rat was isolated and autoclaved at 121° C. for 5 minutes to remove gingiva and the like attached thereto. After drying, the severity of dental caries of each isolated mandibular molar was estimated with a caries score according to the method described in P. H. Keyes, J. Dent. Res., […], 1088-1099 (1958). In Tables 3 and 4, symbols of the severity of dental caries mean as follows:
Dm: moderate dental caries (dental caries extends to a quarter to three quarters part between enamel and dental pulp); and
Dx: extensive dental caries (dental caries extends to more than three quarters part between enamel and dental pulp).
The inhibition rate of dental caries is calculated as follows: [formula]

[3] = test system: protease (collagenase or trypsin); experiment: Ability to inhibit digestion of the soft tissue (human decalcified dentin powder in opaque agar plate, clear zone with protease); assay type: biochemical; details: sodium fluoride
Description: The ability to inhibit digestion of the soft tissue was estimated according to the method described in Yanagida et al, Shonishikagaku Zasshi, Vol. 9, page 39 (1971). That is, various molybdate compounds (Na2 MoO2 F4, K2 MoO2 F4, (NH4)2 MoO2 F4, Na2 MoO4 or K2 MoO4) were dissolved in deionized water in various concentrations to obtain various compositions to be tested. A certain amount of human decalcified dentin powder was treated with each of the above prepared compositions for certain minutes and then unbonded excess components were removed by dialysis to obtain a sample powder. Then, an opaque agar plate was prepared from a mixture of agar and the sample powder, and a protease (collagenase or trypsin) was added to the plate. The inhibiting ability was estimated by observing whether a clear zone was formed on the plate or not (the clear zone is formed by dissolution of the powder with the enzyme, and the formation thereof means digestion of the soft tissue).

mice = experiment: LD50 in mice; assay type: in vivo
From the text: Further, the dental composition of the present invention is useful from a viewpoint of toxicity since the molybdate compounds used in the present invention have toxicity as low as that of other medicaments commonly used for inhibition of dental caries.

[4] = 0.5 hr decalcification, Mo 1%, pH 3
[5] = 0.5 hr decalcification, Mo 1%, pH 5
[6] = 1 hr decalcification, Mo 1%, pH 3
[7] = 1 hr decalcification, Mo 1%, pH 5
[8] = 3 hrs decalcification, Mo 1%, pH 3
[9] = 3 hrs decalcification, Mo 1%, pH 5
[10] = 5 hrs decalcification, Mo 1%, pH 3
[11] = 5 hrs decalcification, Mo 1%, pH 5
[12] = 0.5 hr decalcification, Mo 4%, pH 7
[13] = 1 hr decalcification, Mo 4%, pH 7
[14] = 3 hrs decalcification, Mo 4%, pH 7
[15] = 5 hrs decalcification, Mo 4%, pH 7
[16] = 1st group, 10% solution, pH 7.5

| SMILES | Inhibition rate of decalcification [1, 4] [%] | Inhibition rate of decalcification [1, 5] [%] | Inhibition rate of decalcification [1, 6] [%] | Inhibition rate of decalcification [1, 7] [%] | Inhibition rate of decalcification [1, 8] [%] | Inhibition rate of decalcification [1, 9] [%] | Inhibition rate of decalcification [1, 10] [%] | Inhibition rate of decalcification [1, 11] [%] | Inhibition rate of decalcification [1, 12] [%] | Inhibition rate of decalcification [1, 13] [%] | Inhibition rate of decalcification [1, 14] [%] | Inhibition rate of decalcification [1, 15] [%] | other results |
| --- | --- | --- | --- | --- | --- | --- | --- | --- | --- | --- | --- | --- | --- |
| [Na+].[Na+].[O]=[Mo-2](=[O])([F])([F])([F])[F] [Na2 MoO2 F4, sodium dioxotetrafluoromolybdate] | 63.30 | 62.39 | 64.65 | 50.51 | 66.67 | 49.59 | 66.28 | 49.43 |  |  |  |  |  |
| [F-].[Na+] [NaF, sodium fluoride, reference compound] |  |  |  |  |  |  |  |  |  |  |  |  | Inhibition rate of decalcification ([1]; 0.5 hr decalcification, reference NaF 2%, pH 5): 43.91%; Inhibition rate of decalcification ([1]; 0.5 hr decalcification, reference NaF 2%, pH 7): 41.94%; Inhibition rate of decalcification ([1]; 1 hr decalcification, reference NaF 2%, pH 5): 40.66%; Inhibition rate of decalcification ([1]; 1 hr decalcification, reference NaF 2%, pH 7): 36.36%; Inhibition rate of decalcification ([1]; 3 hrs decalcification, reference NaF 2%, pH 5): 47.97%; Inhibition rate of decalcification ([1]; 3 hrs decalcification, reference NaF 2%, pH 7): 36.59%; Inhibition rate of decalcification ([1]; 5 hrs decalcification, reference NaF 2%, pH 5): 38.76%; Inhibition rate of decalcification ([1]; 5 hrs decalcification, reference NaF 2%, pH 7): 36.93%; Average caries score (± S.E.), Dm (moderate dental caries) ([2]; 2nd group, 2% solution, pH 3.6): 2.3 ± 0.5; Average caries score (± S.E.), Ds (slight dental caries) ([2]; 2nd group, 2% solution, pH 3.6): 6.9 ± 0.8; Average caries score (± S.E.), Dx (extensive dental caries) ([2]; 2nd group, 2% solution, pH 3.6): 1.1 ± 0.4; Inhibition rate of dental caries, Dm (moderate dental caries) ([2]; 2nd group, 2% solution, pH 3.6): 43.9%; Inhibition rate of dental caries, Ds (slight dental caries) ([2]; 2nd group, 2% solution, pH 3.6): 19.8%; Inhibition rate of dental caries, Dx (extensive dental caries) ([2]; 2nd group, 2% solution, pH 3.6): 65.6%; Inhibition of protease digestion (in words) [3]: does not inhibit protease digestion of the soft tissue; Inhibition of protease digestion (in words) ([3]; listed as sodium fluoride): no inhibition of protease digestion |
| O=P([O-])([O-])[O-].[Na+].[Na+].[Na+].[O]=[Mo](=[O])=[O].[O]=[Mo](=[O])=[O].[O]=[Mo](=[O])=[O].[O]=[Mo](=[O])=[O].[O]=[Mo](=[O])=[O].[O]=[Mo](=[O])=[O].[O]=[Mo](=[O])=[O].[O]=[Mo](=[O])=[O].[O]=[Mo](=[O])=[O].[O]=[Mo](=[O])=[O].[O]=[Mo](=[O])=[O].[O]=[Mo](=[O])=[O] [Na3 PO4 . 12MoO3, sodium phosphorus molybdate] | 42.20 | 49.90 | 42.42 | 33.21 | 41.11 | 30.78 | 40.94 | 30.85 |  |  |  |  |  |
| [Na+].[Na+].[O]=[Mo](=[O])([O-])[O-] [Na2 MoO4, sodium orthomolybdate] |  |  |  |  |  |  |  |  | 44.04 | 42.17 | 33.80 | 35.42 | Inhibition rate of decalcification ([1]; 0.5 hr decalcification, Mo 4%, pH 5): 45.61%; Inhibition rate of decalcification ([1]; 1 hr decalcification, Mo 4%, pH 5): 47.60%; Inhibition rate of decalcification ([1]; 3 hrs decalcification, Mo 4%, pH 5): 49.25%; Inhibition rate of decalcification ([1]; 5 hrs decalcification, Mo 4%, pH 5): 47.82% |
| [K+].[K+].[O]=[Mo](=[O])([O-])[O-] [K2 MoO4, potassium orthomolybdate] |  |  |  |  |  |  |  |  | 36.30 | 38.64 | 43.55 | 36.24 | Inhibition rate of decalcification ([1]; 0.5 hr decalcification, Mo 4%, pH 3): 30.80%; Inhibition rate of decalcification ([1]; 1 hr decalcification, Mo 4%, pH 3): 33.33%; Inhibition rate of decalcification ([1]; 3 hrs decalcification, Mo 4%, pH 3): 35.42%; Inhibition rate of decalcification ([1]; 5 hrs decalcification, Mo 4%, pH 3): 34.52% |
| [NH4+].[NH4+].[O]=[Mo-2](=[O])([F])([F])([F])[F] [(NH4)2 MoO2 F4, ammonium dioxotetrafluoromolybdate] | 44.43 | 44.43 | 34.60 | 45.45 | 36.47 | 42.39 | 37.27 | 43.12 |  |  |  |  | LD50 (p.o.) (mice): 124 mg/kg; Average caries score (± S.E.), Dm (moderate dental caries) [2, 16]: 0.7 ± 0.2; Average caries score (± S.E.), Ds (slight dental caries) [2, 16]: 3.9 ± 0.6; Average caries score (± S.E.), Dx (extensive dental caries) [2, 16]: 0.2 ± 0.2; Inhibition rate of dental caries, Dm (moderate dental caries) [2, 16]: 82.9%; Inhibition rate of dental caries, Ds (slight dental caries) [2, 16]: 54.7%; Inhibition rate of dental caries, Dx (extensive dental caries) [2, 16]: 93.8%; Dental caries inhibitory effect (in words) ([2]; Tables 3 and 4): excellent dental caries inhibitory effect; Inhibition rate of dental caries compared with NaF (in words) ([2]; at any severity): extremely superior to that of the composition containing NaF; Inhibition of moderate and extensive dental caries (in words) ([2]; scores of Dm and Dx in Table 3): moderate and extensive dental caries are almost inhibited |
| O.O=P(O)(O)O.[O]=[Mo](=[O])=[O].[O]=[Mo](=[O])=[O].[O]=[Mo](=[O])=[O].[O]=[Mo](=[O])=[O].[O]=[Mo](=[O])=[O].[O]=[Mo](=[O])=[O].[O]=[Mo](=[O])=[O].[O]=[Mo](=[O])=[O].[O]=[Mo](=[O])=[O].[O]=[Mo](=[O])=[O].[O]=[Mo](=[O])=[O].[O]=[Mo](=[O])=[O] [P2 O5 . 24MoO3, phosphomolybdic acid] | 58.32 |  | 52.02 |  | 54.24 |  | 43.12 |  | 45.22 | 44.82 | 47.39 | 44.61 |  |
